According to US20170232083A1, “METHODS OF DIAGNOSIS AND TREATMENT OF CELIAC DISEASE IN CHILDREN” (priority 2014, published 2017):

Test system: PBMC (polyclonal gluten-specific T cells) of paediatric and adult CD patients
Test: IFN-γ ELISpot of PBMC after 3 day oral wheat challenge (SFU, % of maximal peptide response, dominance scores, EC50; Examples 5-6)
Type: cell-based, human
Settings: for IFN-γ ELISpot response: after oral wheat challenge; for Cross-reactive T cell response: following wheat challenge
[1] = patient A, 11-17 yrs, cut-off 10 SFU
[2] = patient E, H, 11-17 yrs, cut-off 10 SFU
[3] = patient F, 11-17 yrs, cut-off 10 SFU
[4] = patient G, 11-17 yrs, cut-off 10 SFU
[5] = patient H (HLA-DQ2.5 homozygote), 3-5yrs, cut-off 10 SFU
[6] = patient H, 11-17 yrs, cut-off 10 SFU
[7] = patient ID not given, 11-17 yrs, cut-off 10 SFU
[8] = patient N, 3-5yrs, cut-off 10 SFU
[9] = patient P, 11-17 yrs, cut-off 21.6 SFU
[10] = patient Q, 11-17 yrs, cut-off 10 SFU
[11] = patient U, H, 11-17 yrs, cut-off 10 SFU
[12] = patient V, 6-10 yrs, cut-off 10 SFU
[13] = patient Y, 6-10 yrs, cut-off 10 SFU
[14] = patient eleven, 6-10 yrs, cut-off 10 SFU
[15] = patient four, 3-5yrs, cut-off 10 SFU
[16] = patient seven, 6-10 yrs, cut-off 10.5 SFU
[17] = patient seven, max peptide 27 SFU
[18] = patient ten, 3-5yrs, cut-off 10 SFU
[19] = patient three, 6-10 yrs, cut-off 10.5 SFU
[20] = patient twelve, 11-17 yrs, cut-off 10 SFU
[21] = patient two, 3-5yrs, cut-off 10 SFU
[22] = subject I (3-5yrs/6-10yrs part)
[23] = subject J (3-5yrs/6-10yrs part)
[24] = subject K (3-5yrs/6-10yrs part)
[25] = subject V (3-5yrs/6-10yrs part)
[26] = subject W (3-5yrs/6-10yrs part)
[27] = subject Y (3-5yrs/6-10yrs part)
[28] = subject five (3-5yrs/6-10yrs part)
[29] = subject seven (3-5yrs/6-10yrs part)
[30] = subject six (3-5yrs/6-10yrs part)
[31] = subject ten (3-5yrs/6-10yrs part)
[32] = subject two (3-5yrs/6-10yrs part)

FPQPEQEFPQPQQ
IFN-γ ELISpot response [1]: 6 SFU | IFN-γ ELISpot response [2]: 49 SFU | Significant response as percentage of maximal peptide SFU (patient E, max peptide 224 SFU): ′′ (21-40% = ′′) | IFN-γ ELISpot response [3]: 21 SFU | Significant response as percentage of maximal peptide SFU (patient F, max peptide 178 SFU): ′ (11-20% = ′) | IFN-γ ELISpot response [4]: 4 SFU | IFN-γ ELISpot response [5]: 13 SFU | IFN-γ ELISpot response [6]: 9 SFU | IFN-γ ELISpot response [7]: 26 SFU | Significant response as percentage of maximal peptide SFU (patient ID not given, max peptide 95 SFU): ′′ (21-40% = ′′) | Significant response as percentage of maximal peptide SFU (patient II, max peptide 15 SFU): + (>70% = +) | Significant response as percentage of maximal peptide SFU (patient J, max peptide 196 SFU): + (>70% = +) | Significant response as percentage of maximal peptide SFU (patient K, max peptide 53 SFU): ′′′ (41-70% = ′′′) | Significant response as percentage of maximal peptide SFU (patient M, max peptide 48 SFU): ′′ (21-40% = ′′) | IFN-γ ELISpot response [8]: 3 SFU | IFN-γ ELISpot response [9]: 11 SFU | IFN-γ ELISpot response [10]: 27 SFU | Significant response as percentage of maximal peptide SFU (patient Q, max peptide 97 SFU): ′′ (21-40% = ′′) | IFN-γ ELISpot response [11]: 15 SFU | Significant response as percentage of maximal peptide SFU (patient U, max peptide 81 SFU): ′ (11-20% = ′) | IFN-γ ELISpot response [12]: 9 SFU | IFN-γ ELISpot response [13]: 3 SFU | IFN-γ ELISpot response [14]: 1 SFU | Significant response as percentage of maximal peptide SFU (patient five, max peptide 48 SFU): ′′ (21-40% = ′′) | IFN-γ ELISpot response [15]: 10 SFU | Significant response as percentage of maximal peptide SFU (patient four, max peptide 44 SFU): ′′ (21-40% = ′′) | IFN-γ ELISpot response [16]: 11 SFU | Significant response as percentage of maximal peptide SFU [17]: ′′′ (41-70% = ′′′) | IFN-γ ELISpot response [18]: 5 SFU | IFN-γ ELISpot response [19]: 158 SFU | IFN-γ ELISpot response [20]: 7 SFU | IFN-γ ELISpot response [21]: 13 SFU | Significant response as percentage of maximal peptide SFU (patient two, max peptide 60 SFU): ′ (11-20% = ′)

QPEQPFPLQPEQPVP
Cross-reactive T cell response (subject A, 11-17yrs): 1 SFU | Cross-reactive T cell response (subject D, 11-17yrs): 0 SFU | Cross-reactive T cell response (subject E, 11-17yrs): 9 SFU | Significant response as a percentage of maximal peptide SFU (subject F, 11-17yrs): ′ (11-20% = ′) | Cross-reactive T cell response (subject F, 11-17yrs): 27 SFU | Cross-reactive T cell response (subject G, 11-17yrs): 2 SFU | Cross-reactive T cell response (subject H): 3 SFU | Cross-reactive T cell response [22]: 1 SFU | Significant response as a percentage of maximal peptide SFU (subject J): (6-10% - ^) | Cross-reactive T cell response [23]: 11 SFU | Cross-reactive T cell response [24]: 8 SFU | Cross-reactive T cell response (subject P, 11-17yrs): 12 SFU | Significant response as a percentage of maximal peptide SFU (subject Q, 11-17yrs): ′′ (21-40% = ′′) | Cross-reactive T cell response (subject Q, 11-17yrs): 20 SFU | Significant response as a percentage of maximal peptide SFU (subject T, 11-17yrs): ′ (11-20% = ′) | Cross-reactive T cell response (subject T, 11-17yrs): 16 SFU | Cross-reactive T cell response (subject U, 11-17yrs): 9 SFU | Cross-reactive T cell response [25]: 4 SFU | Cross-reactive T cell response [26]: 4 SFU | Cross-reactive T cell response [27]: 1 SFU | Cross-reactive T cell response [28]: 3 SFU | Cross-reactive T cell response (subject nine, 11-17yrs): 0 SFU | Significant response as a percentage of maximal peptide SFU (subject seven): + (>70% = +) | Cross-reactive T cell response [29]: 19 SFU | Cross-reactive T cell response [30]: 2 SFU | Cross-reactive T cell response [31]: 8 SFU | Cross-reactive T cell response [32]: 6 SFU

QPFPQPEQPFPLQ
Cross-reactive T cell response (subject A, 11-17yrs): 5 SFU | Significant response as a percentage of maximal peptide SFU (subject D, 11-17yrs): ′′′ (41-70% = ′′′) | Cross-reactive T cell response (subject D, 11-17yrs): 16 SFU | Significant response as a percentage of maximal peptide SFU (subject E, 11-17yrs): ′′ (21-40% = ′′) | Cross-reactive T cell response (subject E, 11-17yrs): 70 SFU | Significant response as a percentage of maximal peptide SFU (subject F, 11-17yrs): ′′ (21-40% = ′′) | Cross-reactive T cell response (subject F, 11-17yrs): 64 SFU | Significant response as a percentage of maximal peptide SFU (subject G, 11-17yrs): ′′′ (41-70% = ′′′) | Cross-reactive T cell response (subject G, 11-17yrs): 10 SFU | Cross-reactive T cell response (subject H): 4 SFU | Significant response as a percentage of maximal peptide SFU (subject I): + (>70% = +) | Cross-reactive T cell response [22]: 13 SFU | Significant response as a percentage of maximal peptide SFU (subject J): ′′′ (41-70% = ′′′) | Cross-reactive T cell response [23]: 88 SFU | Significant response as a percentage of maximal peptide SFU (subject K): ′′′ (41-70% = ′′′) | Cross-reactive T cell response [24]: 29 SFU | Cross-reactive T cell response (subject P, 11-17yrs): 21 SFU | Significant response as a percentage of maximal peptide SFU (subject Q, 11-17yrs): + (>70% = +) | Cross-reactive T cell response (subject Q, 11-17yrs): 83 SFU | Significant response as a percentage of maximal peptide SFU (subject T, 11-17yrs): + (>70% = +) | Cross-reactive T cell response (subject T, 11-17yrs): 94 SFU | Significant response as a percentage of maximal peptide SFU (subject U, 11-17yrs): ′′ (21-40% = ′′) | Cross-reactive T cell response (subject U, 11-17yrs): 18 SFU | Significant response as a percentage of maximal peptide SFU (subject V): ′′′ (41-70% = ′′′) | Cross-reactive T cell response [25]: 22 SFU | Cross-reactive T cell response [26]: 8 SFU | Cross-reactive T cell response [27]: 9 SFU | Significant response as a percentage of maximal peptide SFU (subject five): + (>70% = +) | Cross-reactive T cell response [28]: 45 SFU | Cross-reactive T cell response (subject nine, 11-17yrs): 0 SFU | Cross-reactive T cell response [29]: 6 SFU | Significant response as a percentage of maximal peptide SFU (subject six): + (>70% = +) | Cross-reactive T cell response [30]: 12 SFU | Significant response as a percentage of maximal peptide SFU (subject ten): + (>70% = +) | Cross-reactive T cell response [31]: 13 SFU | Significant response as a percentage of maximal peptide SFU (subject two): + (>70% = +) | Cross-reactive T cell response [32]: 65 SFU

PIPQQPQQPFPLQ
IFN-γ ELISpot response [1]: 6 SFU | IFN-γ ELISpot response [2]: 5 SFU | IFN-γ ELISpot response [3]: 5 SFU | IFN-γ ELISpot response [4]: 2 SFU | IFN-γ ELISpot response [5]: 0 SFU | IFN-γ ELISpot response [6]: 10 SFU | Significant response as percentage of maximal peptide SFU (patient H, max peptide 17 SFU): ′′′ (41-70% = ′′′) | IFN-γ ELISpot response [7]: 3 SFU | Significant response as percentage of maximal peptide SFU (patient II, max peptide 15 SFU): + (>70% = +) | IFN-γ ELISpot response [8]: 1 SFU | IFN-γ ELISpot response [9]: 9 SFU | IFN-γ ELISpot response [10]: 13 SFU | Significant response as percentage of maximal peptide SFU (patient Q, max peptide 97 SFU): ′ (11-20% = ′) | IFN-γ ELISpot response [11]: 4 SFU | IFN-γ ELISpot response [12]: 9 SFU | IFN-γ ELISpot response [13]: 5 SFU | IFN-γ ELISpot response [14]: 4 SFU | IFN-γ ELISpot response [15]: 1 SFU | IFN-γ ELISpot response [16]: 14 SFU | Significant response as percentage of maximal peptide SFU [17]: ′′′ (41-70% = ′′′) | IFN-γ ELISpot response [18]: 7 SFU | IFN-γ ELISpot response [19]: 1 SFU | IFN-γ ELISpot response [20]: 1 SFU | IFN-γ ELISpot response [21]: 2 SFU
